Test results from ChEMBL document CHEMBL3991601, “The target landscape of clinical kinase drugs” (Science, 2017).
Activity calls are given as the source filed them. Rule as the data show it, for most assays here: actives have a measured Kd and inactives only a lower limit.

Experiments:
Aurora kinase A = biological target: T1, Aurora kinase A (Homo sapiens, UniProt O14965)
T1 sequence (O14965 whole entry): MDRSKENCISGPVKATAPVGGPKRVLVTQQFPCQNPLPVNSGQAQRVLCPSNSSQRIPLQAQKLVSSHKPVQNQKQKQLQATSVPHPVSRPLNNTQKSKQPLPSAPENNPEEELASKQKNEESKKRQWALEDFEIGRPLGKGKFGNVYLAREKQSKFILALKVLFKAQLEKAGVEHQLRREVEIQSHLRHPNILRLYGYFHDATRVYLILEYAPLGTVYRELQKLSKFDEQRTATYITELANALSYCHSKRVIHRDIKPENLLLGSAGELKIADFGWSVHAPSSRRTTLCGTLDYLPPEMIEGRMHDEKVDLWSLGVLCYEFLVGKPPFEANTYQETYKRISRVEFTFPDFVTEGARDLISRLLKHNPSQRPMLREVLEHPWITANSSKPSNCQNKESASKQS

[1] = biological target: Platelet-derived growth factor receptor beta (Homo sapiens, UniProt P09619)
Sequence of Platelet-derived growth factor receptor beta (P09619 whole entry): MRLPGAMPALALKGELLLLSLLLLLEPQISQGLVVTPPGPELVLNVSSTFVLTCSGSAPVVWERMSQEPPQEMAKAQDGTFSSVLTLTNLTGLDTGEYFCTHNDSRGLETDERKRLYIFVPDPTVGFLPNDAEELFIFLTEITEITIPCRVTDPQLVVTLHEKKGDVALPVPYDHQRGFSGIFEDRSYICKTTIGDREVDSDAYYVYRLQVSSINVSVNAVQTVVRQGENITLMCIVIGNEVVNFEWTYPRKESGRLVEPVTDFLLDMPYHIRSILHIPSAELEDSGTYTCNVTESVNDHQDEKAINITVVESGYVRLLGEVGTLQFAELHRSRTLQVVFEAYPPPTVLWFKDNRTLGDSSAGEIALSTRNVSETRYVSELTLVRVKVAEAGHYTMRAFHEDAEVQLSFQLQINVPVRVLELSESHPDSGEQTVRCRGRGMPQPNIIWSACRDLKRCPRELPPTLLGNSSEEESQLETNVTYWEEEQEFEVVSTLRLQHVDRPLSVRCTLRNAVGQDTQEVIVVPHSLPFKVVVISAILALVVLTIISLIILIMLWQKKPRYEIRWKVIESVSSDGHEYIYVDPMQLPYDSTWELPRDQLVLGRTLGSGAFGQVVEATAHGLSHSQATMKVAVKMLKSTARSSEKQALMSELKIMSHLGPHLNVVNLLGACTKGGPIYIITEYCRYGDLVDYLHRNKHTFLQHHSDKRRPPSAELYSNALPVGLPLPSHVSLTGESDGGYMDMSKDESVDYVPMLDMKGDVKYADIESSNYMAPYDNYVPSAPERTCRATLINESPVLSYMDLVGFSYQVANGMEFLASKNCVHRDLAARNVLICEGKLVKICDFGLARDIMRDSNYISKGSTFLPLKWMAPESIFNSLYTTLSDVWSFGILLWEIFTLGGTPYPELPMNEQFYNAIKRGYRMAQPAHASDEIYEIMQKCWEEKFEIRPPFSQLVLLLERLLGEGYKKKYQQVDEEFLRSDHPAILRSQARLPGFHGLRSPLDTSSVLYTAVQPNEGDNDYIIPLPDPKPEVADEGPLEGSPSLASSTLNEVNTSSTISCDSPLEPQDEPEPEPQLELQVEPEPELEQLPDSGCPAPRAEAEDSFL

[2] = biological target: AP2-associated protein kinase 1 (Homo sapiens, UniProt Q2M2I8)
Sequence of AP2-associated protein kinase 1 (Q2M2I8 whole entry): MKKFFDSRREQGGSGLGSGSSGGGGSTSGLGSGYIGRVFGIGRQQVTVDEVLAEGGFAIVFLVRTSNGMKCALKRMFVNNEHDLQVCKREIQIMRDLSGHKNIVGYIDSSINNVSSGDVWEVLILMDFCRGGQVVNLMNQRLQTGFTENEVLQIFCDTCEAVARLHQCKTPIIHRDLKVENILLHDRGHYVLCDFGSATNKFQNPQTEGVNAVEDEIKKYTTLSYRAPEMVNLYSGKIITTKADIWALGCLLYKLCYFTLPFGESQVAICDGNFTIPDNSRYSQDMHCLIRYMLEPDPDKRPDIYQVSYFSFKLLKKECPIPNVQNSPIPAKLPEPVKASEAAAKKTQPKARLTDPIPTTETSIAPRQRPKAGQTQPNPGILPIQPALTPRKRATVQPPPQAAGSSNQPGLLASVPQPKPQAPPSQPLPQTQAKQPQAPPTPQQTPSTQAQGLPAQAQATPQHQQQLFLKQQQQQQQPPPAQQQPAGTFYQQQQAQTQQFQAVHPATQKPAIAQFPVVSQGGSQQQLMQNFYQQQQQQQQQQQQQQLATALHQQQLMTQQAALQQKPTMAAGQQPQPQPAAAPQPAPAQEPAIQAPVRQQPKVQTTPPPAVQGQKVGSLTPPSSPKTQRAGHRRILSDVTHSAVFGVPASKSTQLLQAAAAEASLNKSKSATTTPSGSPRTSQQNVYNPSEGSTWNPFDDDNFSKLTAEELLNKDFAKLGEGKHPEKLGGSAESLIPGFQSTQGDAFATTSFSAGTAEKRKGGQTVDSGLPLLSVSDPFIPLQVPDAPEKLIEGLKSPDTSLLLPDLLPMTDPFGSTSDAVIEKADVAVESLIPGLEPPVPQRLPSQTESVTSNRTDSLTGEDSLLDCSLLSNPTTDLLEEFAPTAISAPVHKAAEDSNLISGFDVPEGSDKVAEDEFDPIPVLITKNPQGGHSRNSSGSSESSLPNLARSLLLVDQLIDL

[3] = biological target: T2, Peroxisomal acyl-coenzyme A oxidase 1 (Homo sapiens, UniProt Q15067)
T2 sequence (Q15067 whole entry): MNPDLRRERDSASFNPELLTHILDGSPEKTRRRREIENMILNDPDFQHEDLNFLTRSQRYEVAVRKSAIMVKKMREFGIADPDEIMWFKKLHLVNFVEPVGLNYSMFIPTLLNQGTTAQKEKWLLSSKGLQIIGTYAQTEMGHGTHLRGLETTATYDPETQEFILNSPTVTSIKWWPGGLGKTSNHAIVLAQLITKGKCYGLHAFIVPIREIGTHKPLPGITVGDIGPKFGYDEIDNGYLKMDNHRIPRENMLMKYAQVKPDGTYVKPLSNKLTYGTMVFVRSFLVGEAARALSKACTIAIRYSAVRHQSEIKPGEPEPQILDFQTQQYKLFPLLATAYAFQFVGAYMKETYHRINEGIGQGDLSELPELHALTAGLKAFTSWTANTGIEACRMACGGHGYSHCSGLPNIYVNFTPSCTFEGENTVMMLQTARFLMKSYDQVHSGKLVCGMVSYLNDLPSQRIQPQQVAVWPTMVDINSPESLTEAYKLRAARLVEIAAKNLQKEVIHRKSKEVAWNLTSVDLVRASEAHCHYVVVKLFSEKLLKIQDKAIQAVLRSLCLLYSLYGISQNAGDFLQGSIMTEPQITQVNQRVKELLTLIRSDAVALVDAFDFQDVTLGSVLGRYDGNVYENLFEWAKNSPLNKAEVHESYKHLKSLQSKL

[4] = biological target: ATP-dependent RNA helicase DDX3X (Homo sapiens, UniProt O00571)
Sequence of ATP-dependent RNA helicase DDX3X (O00571 whole entry): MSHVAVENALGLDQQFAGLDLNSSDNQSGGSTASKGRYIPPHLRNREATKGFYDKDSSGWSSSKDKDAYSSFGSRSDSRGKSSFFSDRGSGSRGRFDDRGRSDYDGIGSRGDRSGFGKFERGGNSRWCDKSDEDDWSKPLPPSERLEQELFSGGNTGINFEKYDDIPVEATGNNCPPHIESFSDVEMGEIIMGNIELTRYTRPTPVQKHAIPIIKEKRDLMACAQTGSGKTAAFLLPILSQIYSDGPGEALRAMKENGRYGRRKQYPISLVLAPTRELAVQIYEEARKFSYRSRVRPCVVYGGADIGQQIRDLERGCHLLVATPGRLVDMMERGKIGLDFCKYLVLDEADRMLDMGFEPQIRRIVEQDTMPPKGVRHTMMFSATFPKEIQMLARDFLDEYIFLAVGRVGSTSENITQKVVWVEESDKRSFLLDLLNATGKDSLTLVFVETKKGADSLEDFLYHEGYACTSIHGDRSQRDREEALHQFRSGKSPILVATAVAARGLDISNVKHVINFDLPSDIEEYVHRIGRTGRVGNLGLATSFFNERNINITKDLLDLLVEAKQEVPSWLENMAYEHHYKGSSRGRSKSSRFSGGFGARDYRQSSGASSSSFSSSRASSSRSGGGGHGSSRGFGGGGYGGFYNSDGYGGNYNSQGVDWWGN

[5] = biological target: Cyclin-dependent kinase 12 (Homo sapiens, UniProt Q9NYV4)
Sequence of Cyclin-dependent kinase 12 (Q9NYV4 whole entry): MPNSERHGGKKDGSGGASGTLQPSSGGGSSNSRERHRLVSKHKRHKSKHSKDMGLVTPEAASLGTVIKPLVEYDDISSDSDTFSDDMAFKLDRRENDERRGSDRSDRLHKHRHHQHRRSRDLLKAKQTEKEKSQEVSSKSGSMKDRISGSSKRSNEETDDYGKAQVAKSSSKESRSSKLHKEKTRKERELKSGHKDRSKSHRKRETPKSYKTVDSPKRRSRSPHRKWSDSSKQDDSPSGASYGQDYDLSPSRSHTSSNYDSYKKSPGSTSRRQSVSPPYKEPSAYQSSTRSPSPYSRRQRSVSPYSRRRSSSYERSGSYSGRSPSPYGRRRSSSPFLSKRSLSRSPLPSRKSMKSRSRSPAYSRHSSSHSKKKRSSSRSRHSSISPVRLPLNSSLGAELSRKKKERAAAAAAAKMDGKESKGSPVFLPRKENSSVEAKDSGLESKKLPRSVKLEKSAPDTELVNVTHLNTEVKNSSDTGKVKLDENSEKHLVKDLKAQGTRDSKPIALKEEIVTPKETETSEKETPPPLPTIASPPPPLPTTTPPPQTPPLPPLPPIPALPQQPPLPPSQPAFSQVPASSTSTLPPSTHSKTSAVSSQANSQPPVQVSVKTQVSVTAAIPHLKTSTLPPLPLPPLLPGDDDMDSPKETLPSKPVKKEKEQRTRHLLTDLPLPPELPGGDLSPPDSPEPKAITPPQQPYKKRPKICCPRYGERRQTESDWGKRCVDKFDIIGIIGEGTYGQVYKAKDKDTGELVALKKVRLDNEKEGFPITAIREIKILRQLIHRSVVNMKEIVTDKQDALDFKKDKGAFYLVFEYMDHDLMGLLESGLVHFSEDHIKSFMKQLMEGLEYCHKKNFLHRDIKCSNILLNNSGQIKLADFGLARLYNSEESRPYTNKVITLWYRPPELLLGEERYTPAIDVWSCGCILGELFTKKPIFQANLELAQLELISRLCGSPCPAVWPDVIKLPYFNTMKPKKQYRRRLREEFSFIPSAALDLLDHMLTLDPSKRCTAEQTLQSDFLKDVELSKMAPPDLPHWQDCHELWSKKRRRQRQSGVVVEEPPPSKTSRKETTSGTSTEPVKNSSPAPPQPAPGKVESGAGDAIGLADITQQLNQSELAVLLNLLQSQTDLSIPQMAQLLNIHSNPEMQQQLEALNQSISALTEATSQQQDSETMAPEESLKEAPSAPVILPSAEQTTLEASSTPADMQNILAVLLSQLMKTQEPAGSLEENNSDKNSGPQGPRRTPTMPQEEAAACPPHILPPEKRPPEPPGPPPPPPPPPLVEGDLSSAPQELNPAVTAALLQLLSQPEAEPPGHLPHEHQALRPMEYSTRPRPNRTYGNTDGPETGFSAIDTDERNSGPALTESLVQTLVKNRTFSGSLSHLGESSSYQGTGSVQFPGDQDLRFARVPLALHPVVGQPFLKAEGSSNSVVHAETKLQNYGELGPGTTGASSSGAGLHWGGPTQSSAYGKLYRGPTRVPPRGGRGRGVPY

[6] = biological target: Ribosomal protein S6 kinase alpha-1 (Homo sapiens, UniProt Q15418)
Sequence of Ribosomal protein S6 kinase alpha-1 (Q15418 whole entry): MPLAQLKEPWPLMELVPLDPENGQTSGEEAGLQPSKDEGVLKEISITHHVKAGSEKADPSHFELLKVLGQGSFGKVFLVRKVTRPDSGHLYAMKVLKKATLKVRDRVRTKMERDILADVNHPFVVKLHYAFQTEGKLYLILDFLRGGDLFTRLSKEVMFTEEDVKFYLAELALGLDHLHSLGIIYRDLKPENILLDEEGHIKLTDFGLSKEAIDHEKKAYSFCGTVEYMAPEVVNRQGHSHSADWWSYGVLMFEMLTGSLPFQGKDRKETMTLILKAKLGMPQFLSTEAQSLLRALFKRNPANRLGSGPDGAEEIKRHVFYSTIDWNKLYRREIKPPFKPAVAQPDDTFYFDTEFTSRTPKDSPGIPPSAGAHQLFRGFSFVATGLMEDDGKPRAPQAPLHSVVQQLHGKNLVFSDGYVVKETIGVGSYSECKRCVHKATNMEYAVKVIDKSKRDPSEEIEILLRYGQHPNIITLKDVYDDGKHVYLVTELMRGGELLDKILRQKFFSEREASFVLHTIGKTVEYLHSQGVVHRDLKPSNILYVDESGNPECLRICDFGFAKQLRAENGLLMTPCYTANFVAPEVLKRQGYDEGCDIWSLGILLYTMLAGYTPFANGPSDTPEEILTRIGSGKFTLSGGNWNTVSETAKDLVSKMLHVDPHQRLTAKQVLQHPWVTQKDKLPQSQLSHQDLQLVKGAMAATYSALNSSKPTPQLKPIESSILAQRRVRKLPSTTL

[7] = biological target: T3, Serine/threonine-protein kinase Nek2 (Homo sapiens, UniProt P51955)
T3 sequence (P51955 whole entry): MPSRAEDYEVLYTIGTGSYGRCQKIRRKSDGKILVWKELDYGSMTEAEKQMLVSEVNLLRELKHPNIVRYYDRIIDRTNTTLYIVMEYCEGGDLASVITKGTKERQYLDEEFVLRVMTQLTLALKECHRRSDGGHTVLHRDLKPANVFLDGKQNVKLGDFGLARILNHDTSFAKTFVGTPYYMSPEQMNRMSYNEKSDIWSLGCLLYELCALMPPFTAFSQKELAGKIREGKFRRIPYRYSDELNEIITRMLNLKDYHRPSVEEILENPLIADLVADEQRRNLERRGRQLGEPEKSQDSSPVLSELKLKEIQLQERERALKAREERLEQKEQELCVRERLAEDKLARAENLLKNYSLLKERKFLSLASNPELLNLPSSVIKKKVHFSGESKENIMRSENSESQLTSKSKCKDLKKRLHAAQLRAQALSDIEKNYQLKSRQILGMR

[8] = biological target: T4, Phenylalanine--tRNA ligase beta subunit (Homo sapiens, UniProt Q9NSD9)
T4 sequence (Q9NSD9 whole entry): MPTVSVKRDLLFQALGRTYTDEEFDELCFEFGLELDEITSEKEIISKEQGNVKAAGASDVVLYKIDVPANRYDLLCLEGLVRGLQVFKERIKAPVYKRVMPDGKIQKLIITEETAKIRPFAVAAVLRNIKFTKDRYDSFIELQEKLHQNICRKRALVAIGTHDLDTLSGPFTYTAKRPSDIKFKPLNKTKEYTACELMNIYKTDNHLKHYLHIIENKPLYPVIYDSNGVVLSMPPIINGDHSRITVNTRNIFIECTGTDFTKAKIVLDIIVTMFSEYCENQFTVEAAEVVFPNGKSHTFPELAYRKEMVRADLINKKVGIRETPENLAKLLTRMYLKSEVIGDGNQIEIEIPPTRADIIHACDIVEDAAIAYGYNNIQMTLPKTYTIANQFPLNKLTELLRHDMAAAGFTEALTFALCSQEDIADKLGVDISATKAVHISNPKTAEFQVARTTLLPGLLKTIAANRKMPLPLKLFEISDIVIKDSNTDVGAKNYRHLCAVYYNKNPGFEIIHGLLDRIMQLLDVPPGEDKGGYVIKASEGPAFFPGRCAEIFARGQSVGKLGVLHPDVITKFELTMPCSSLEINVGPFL
Also: in the data inactive means no Kd found up to 30 µM.

Row | SMILES | Kd (Aurora kinase A) | Kd [1] | Kd [2] | Kd [3] | Kd [4] | Kd [5] | Kd [6] | Kd [7] | Kd [8]
1 | CNC(=O)c1cccc2cc(Oc3ccnc4cc(OCC5(N)CC5)c(OC)cc34)ccc12 [LUCITANIB] | > 30 µM (inactive) | 0.278 µM | > 30 µM (inactive) | > 30 µM (inactive) | > 30 µM (inactive) | > 30 µM (inactive) | > 30 µM (inactive) | > 30 µM (inactive) | > 30 µM (inactive)
2 | FC(F)(F)c1ccc(/C=C/c2nc(COc3ccc(CCCCn4ccnn4)cc3)co2)cc1 [MUBRITINIB] | > 30 µM (inactive) | > 30 µM (inactive) | > 30 µM (inactive) | > 30 µM (inactive) | > 30 µM (inactive) | > 30 µM (inactive) | > 30 µM (inactive) | > 30 µM (inactive) | > 30 µM (inactive)
3 | CCCCCCCCCCCCCCCCCCOP(=O)([O-])OC1CC[N+](C)(C)CC1 [PERIFOSINE] | > 30 µM (inactive) | > 30 µM (inactive) | > 30 µM (inactive) | > 30 µM (inactive) | > 30 µM (inactive) | > 30 µM (inactive) | > 30 µM (inactive) | > 30 µM (inactive) | > 30 µM (inactive)
4 | Cc1cnc(NC(=O)Nc2cc(Br)c(C)cc2OC[C@@H]2CNCCO2)cn1 [RABUSERTIB] | > 30 µM (inactive) | > 30 µM (inactive) | > 30 µM (inactive) | > 30 µM (inactive) | > 30 µM (inactive) | > 30 µM (inactive) | > 30 µM (inactive) | > 30 µM (inactive) | > 30 µM (inactive)
5 | CNC(=O)c1cc(Oc2ccc(NC(=O)Nc3cc(C(C)(C)C)nn3-c3ccc4ncccc4c3)c(F)c2)ccn1 [REBASTINIB] | > 30 µM (inactive) | > 30 µM (inactive) | > 30 µM (inactive) | > 30 µM (inactive) | > 30 µM (inactive) | > 30 µM (inactive) | > 30 µM (inactive) | > 30 µM (inactive) | > 30 µM (inactive)
6 | N#CC1(c2ccc(NC(=O)c3cccnc3NCc3ccncc3)cc2)CCCC1 [RIVOCERANIB] | > 30 µM (inactive) | > 30 µM (inactive) | > 30 µM (inactive) | > 30 µM (inactive) | > 30 µM (inactive) | > 30 µM (inactive) | > 30 µM (inactive) | > 30 µM (inactive) | > 30 µM (inactive)
7 | O=c1[nH]ccc2cc(OC3CCNCC3)ccc12 [SAR-407899 FREE BASE] | > 30 µM (inactive) | > 30 µM (inactive) | 0.012 µM (active) | > 30 µM (inactive) | > 30 µM (inactive) | > 30 µM (inactive) | > 30 µM (inactive) | > 30 µM (inactive) | > 30 µM (inactive)
8 | CO[C@H]1C[C@@H]2CC[C@@H](C)[C@@](O)(O2)C(=O)C(=O)N2CCCC[C@H]2C(=O)O[C@H]([C@H](C)C[C@@H]2CC[C@@H](O)[C@H](OC)C2)CC(=O)[C@H](C)/C=C(\C)[C@@H](O)[C@@H](OC)C(=O)[C@H](C)C[C@H](C)/C=C/C=C/C=C/1C [SIROLIMUS] | > 30 µM (inactive) | > 30 µM (inactive) | > 30 µM (inactive) | > 30 µM (inactive) | > 30 µM (inactive) | > 30 µM (inactive) | > 30 µM (inactive) | > 30 µM (inactive) | > 30 µM (inactive)
9 | CO[C@H]1C[C@@H]2CC[C@@H](C)[C@@](O)(O2)C(=O)C(=O)N2CCCC[C@H]2C(=O)O[C@H]([C@H](C)C[C@@H]2CC[C@@H](OC(=O)C(C)(CO)CO)[C@H](OC)C2)CC(=O)[C@H](C)/C=C(\C)[C@@H](O)[C@@H](OC)C(=O)[C@H](C)C[C@H](C)/C=C/C=C/C=C/1C [TEMSIROLIMUS] | > 30 µM (inactive) | > 30 µM (inactive) | > 30 µM (inactive) | > 30 µM (inactive) | > 30 µM (inactive) | > 30 µM (inactive) | > 30 µM (inactive) | > 30 µM (inactive) | > 30 µM (inactive)
10 | COc1cc2c(Nc3ccc(Cl)c(Cl)c3F)ncnc2cc1OC[C@@H]1C[C@@H]2CN(C)C[C@@H]2C1 [TESEVATINIB] | > 30 µM (inactive) | > 30 µM (inactive) | > 30 µM (inactive) | > 30 µM (inactive) | > 30 µM (inactive) | > 30 µM (inactive) | > 30 µM (inactive) | > 30 µM (inactive) | > 30 µM (inactive)
11 | O=C(Cc1ccc(-c2ccc(OCCN3CCOCC3)cc2)cn1)NCc1ccccc1 [TIRBANIBULIN] | > 30 µM (inactive) | > 30 µM (inactive) | > 30 µM (inactive) | > 30 µM (inactive) | > 30 µM (inactive) | > 30 µM (inactive) | > 30 µM (inactive) | > 30 µM (inactive) | > 30 µM (inactive)
12 | Cn1ncc(Cl)c1-c1cc(C(=O)N[C@H](CN)Cc2ccc(F)c(F)c2)oc1Cl [UPROSERTIB] | > 30 µM (inactive) | > 30 µM (inactive) | > 30 µM (inactive) | > 30 µM (inactive) | > 30 µM (inactive) | > 30 µM (inactive) | > 30 µM (inactive) | > 30 µM (inactive) | > 30 µM (inactive)

Continued, values first:

Row | Kd (Aurora kinase A) | Kd [1] | Kd [2] | Kd [3] | Kd [4] | Kd [5] | Kd [6] | Kd [7] | Kd [8] | SMILES
13 | > 30 µM (inactive) | 0.543 µM | 3.65 µM (active) | > 30 µM (inactive) | > 30 µM (inactive) | > 30 µM (inactive) | > 30 µM (inactive) | > 30 µM (inactive) | > 30 µM (inactive) | CN(C[C@@H]1COCCO1)S(=O)(=O)Nc1ccc2ccc3ncc(-c4cnn(C)c4)cc3c(=O)c2c1 [MK-2461]
14 | > 30 µM (inactive) | > 30 µM (inactive) | > 30 µM (inactive) | > 30 µM (inactive) | > 30 µM (inactive) | > 30 µM (inactive) | > 30 µM (inactive) | > 30 µM (inactive) | > 30 µM (inactive) | Cn1cc(-c2cnc3ccc4ccc(CS(=O)(=O)NCc5ccccn5)cc4c(=O)c3c2)cn1 [MK-8033]
15 | > 30 µM (inactive) | > 30 µM (inactive) | > 30 µM (inactive) | > 30 µM (inactive) | > 30 µM (inactive) | > 30 µM (inactive) | > 30 µM (inactive) | > 30 µM (inactive) | > 30 µM (inactive) | Cn1cc(-c2cnn3c(N)c(Br)c([C@@H]4CCCNC4)nc23)cn1 [SCH-900776]
16 | 0.003 µM (active) | > 30 µM (inactive) | 0.138 µM (active) | > 30 µM (inactive) | > 30 µM (inactive) | > 30 µM (inactive) | > 30 µM (inactive) | > 30 µM (inactive) | > 30 µM (inactive) | CC(C)c1cc(CNc2nc(Nc3cc(C4CC4)[nH]n3)cc(N3CCN(C)CC3)n2)on1 [XL-228]
